In PubChem BioAssay (NCI) one finds TGI data, which are given here for six compounds.

Some test systems named below: A498 renal; ACHN renal; BT-549 breast; CAKI-1 renal; DU-145 prostate; EKVX NSCLC; LOX IMVI melanoma; M19-MEL melanoma; SNB-75 CNS.
What all share (assay): inhibition of tumour cell growth, NCI panel, 48 h

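Dose response: 5 concentrations. Exposure: 48 h. Format: 96-well plates. Endpoint: linear interpolation; highest concentration if not reached. TGI: total growth inhibition.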 A value given as a limit tells only on which side of the number the result lay.

In the case of `CS(=O)(=O)c1cc(=O)c2ccccc2s1`, the TGI in the test with A498 renal was determined as 31.4 µM; with ACHN renal, 5.68 µM; in the test with BT-549 breast, 35.6 µM; in the test with CAKI-1 renal, 4.49 µM; in the test on DU-145 prostate it was 33.3 µM; in the test with EKVX NSCLC, 21.4 µM. Also, the TGI with LOX IMVI melanoma came out at 17.6 µM; with M19-MEL melanoma it was 18.3 µM; in the test on SNB-75 CNS it was 31 µM.
Take `c1cc2c(ncc3cscc32)s1`: the TGI with A498 renal, with ACHN renal, with CAKI-1 renal, in the test on DU-145 prostate, with EKVX NSCLC and in the test with LOX IMVI melanoma was > 100 µM throughout. Besides, the TGI with M19-MEL melanoma and in the test on SNB-75 CNS was > 100 µM in each case.
Consider `O=c1[nH]c(=O)n(C2OC(CO)C(O)C(O)C2O)cc1F` (configuration not stated), for which the TGI with A498 renal, in the test with ACHN renal, in the test on BT-549 breast, with CAKI-1 renal, in the test with DU-145 prostate and in the test with EKVX NSCLC was > 100 µM in each case. Moreover, the TGI in the test on LOX IMVI melanoma, in the test with M19-MEL melanoma and in the test on SNB-75 CNS was > 100 µM each time.
As for `Cc1ccc2c(c1)CN(C(=O)CCC(=O)OCc1ccccc1)c1ccc(C)cc1CN2C(=O)CCC(=O)OCc1ccccc1`, the TGI in the test with A498 renal, in the test with ACHN renal, in the test with BT-549 breast, in the test with CAKI-1 renal, in the test with DU-145 prostate and with EKVX NSCLC was > 100 µM throughout. The TGI with LOX IMVI melanoma was > 100 µM; in the test with M19-MEL melanoma it was > 100 µM; with SNB-75 CNS, 62.6 µM.
Take `COc1ccc(/C=C\c2cc(OC)c(OC)c(OC)c2)cc1OC(=O)NCCN(C)C`: the TGI with A498 renal was 0.0303 µM; in the test on ACHN renal, > 41.7 µM; with CAKI-1 renal, > 100 µM; in the test with DU-145 prostate, 0.043 µM; in the test with EKVX NSCLC, > 58.7 µM; in the test with LOX IMVI melanoma, > 100 µM. Further, the figures for the TGI in the test with M19-MEL melanoma and with SNB-75 CNS were 20.1 µM and 32.8 µM, respectively.
Turning to `Nc1ncn(C2CC(O)C(CO)O2)c(=O)n1` (configuration not stated), the TGI is > 332 µM in the test with A498 renal; > 375 µM with ACHN renal; > 178 µM with BT-549 breast; > 375 µM with CAKI-1 renal; > 375 µM with DU-145 prostate; > 293 µM with EKVX NSCLC. For the same compound, the TGI in the test on LOX IMVI melanoma is > 375 µM; in the test with M19-MEL melanoma it was > 375 µM; in the test on SNB-75 CNS, > 288 µM.
